Source: patent US7074768B2, “Modified protein kinase A-specific oligonucleotides and methods of their use” (Idera Pharmaceuticals, Inc., priority 1995, dated 2006)

What was measured:
[1] = system: ZR75-1 human breast cancer cells; test: Soft agar growth of ZR75-1 cells; type: cell-based
Description: (§1) Cells (10^4 cells/well) were seeded in 0.5 ml of 0.3% Difco Noble agar (Difco, Detroit, Mich.) supplemented with complete culture medium. This suspension was layered over 0.5 ml of 0.8% agar-medium base layer in 24 multiwell cluster dishes (Becton Dickinson) and treated with various concentrations of docetaxel (day 0). […] Twelve days after the last treatment, cells were stained with nitroblue tetrazolium (Sigma) and colonies larger than 0.05 mm were counted.
as §1
(§2) Soft agar growth. Cells (10^4 cells/well) were seeded in 0.5 ml of 0.3% Difco Noble agar (Difco, Detroit, Mich.) supplemented with complete culture medium. This suspension was layered over 0.5 ml of 0.8% agar-medium base layer in 24 multiwell cluster dishes (Becton Dickinson) and treated with various concentrations of docetaxel (day 0). The HYB 165 was added after 12 hrs (day 1) and on day 3. Twelve days after the last treatment, cells were stained with nitroblue tetrazolium (Sigma) and colonies larger than 0.05 mm were counted.
as §2, with “508” for “165”, “hrs” for “hrs (day 1)”, “2, 3 and 4. After 12” for “3. Twelve”, “days” for “days after”, “the” for “the last treatment,”
Soft agar growth. Cells (10^4 cells/well) were seeded in 0.5 ml of 0.3% Difco Noble agar (Difco, Detroit, Mich.) supplemented with complete culture medium. […] After 12 days the cells were stained with nitroblue tetrazolium (Sigma) and colonies larger than 0.05 mm were counted.
as §2, with “of” for “of docetaxel (day 0). The”, “or HYB295 every 48 hours for three times. After” for “was added after”, “12” for “12 hrs (day 1) and on day 3. Twelve”, “days” for “days after”, “the” for “the last treatment,”, “(Sigma, St. Louis, Mo.)” for “(Sigma)”
as §2, with “of” for “of docetaxel (day 0). The”, “or HYB508 every 48 hours for three times. After” for “was added after”, “12” for “12 hrs (day 1) and on day 3. Twelve”, “days” for “days after”, “the” for “the last treatment,”, “(Sigma, St. Louis, Mo.)” for “(Sigma)”

[2] = system: Factor VIII related antigen; test: Tumor-induced neovascularization (anti-Factor VIII related antigen immunohistochemistry); type: in vivo; details: single agent, vs untreated mice or scramble MBO
Description: In recent years, the critical role of tumor-induced neovascularization in neoplastic development, progression and metastasis has been elucidated (J. I. Fokman, In: J. Mendelsohn et al., eds., The Molecular Basis of Cancer, pp 206–232, Philadelphia: W B Saunders (1995) . A reliable histologic estimate of novel blood vessels on tumor specimens is the microvessel count (MVC) in the most intense areas of neovascularization. In the present study, tumor-induced neovascularization was quantified by immunohistochemistry using an anti-Factor VIII related antigen monoclonal antibody (N. Weidner, Breast Cancer Res. Treat., 36:169–180 (1995)).

TGFα = test: Histochemical analysis of GEO tumors: TGFα; type: in vivo; details: single agent, after two cycles
Description: (§3) Tumor specimens from the different groups of mice were examined by histochemical analysis at different time points to evaluate the expression of a variety of biological parameters.
(§4) TGFα and AR are growth factors which bind to EGFR and control human colon cancer growth through autocrine and paracrine mechanisms (F. Ciardiello and G. Tortora, Clin. Cancer Res. 4:821–828 (1998); D. S. Salomon, Crit. Rev. Oncol. Hematol. 19:183–232 (1995)).

p27 = test: Histochemical analysis of GEO tumors: p27; type: in vivo; details: single agent
Description: Tumor specimens from the different groups of mice were examined by histochemical analysis at different time points to evaluate the expression of a variety of biological parameters. […] No other treatment was able to affect RIα expression.
Loda et al. (Nature Medicine 3:231–234 (1997)) discloses that the cyclin-dependent kinase (CDK) inhibitor p27 is […] related to cell entry into S phase and proliferation and that reduction of its expression correlates with poor prognosis in colon cancer patients.

[3] = system: GEO human colon cancer cells; test: Soft agar growth of GEO cells; type: cell-based
Description: as §2, with “Cells” for “Soft agar growth. Cells”, “paclitaxel” for “docetaxel”, “2, 3 and 4. 12” for “3. Twelve”

[4] = system: GEO colon cancer xenografts; test: GEO colon cancer xenografts in nude mice (tumor growth, survival); type: in vivo; details: single agent
Description: We investigated the antitumor activity of HYB 165 (AS RIα) in nude mice bearing GEO colon cancer xenografts, using either the intraperitoneal (i.p.) or the oral route of administration. When established GEO tumors of approximately […] were detectable, groups of 10 mice were treated i.p. with either HYB 165 or a control modified backbone oligonucleotide with a scrambled sequence, at 5 or 10 mg/kg/dose, daily on days 7 to 11 and 14 to 18. […] The control oligonucleotide produced no inhibition at 10 mg/kg/dose.
Following oral administration, modified backbone oligonucleotides (MBOs) are absorbed in the upper and lower part of the GI tract and distributed to major organs (S. Agrawal and R. Zhang, In: Antisense Research and Application, S. T. Crooke, ed.), Handbook of Experimental Pharmacology, Springer, Berlin, p. 525–543 (1998). Therefore, HYB 165 and the control oligonucleotide were administered to GEO tumor-bearing mice as described above, except that HYB 165 and the control oligonucleotide were administered orally.
On day 7 after tumor cell injection, one group of 10 mice was treated with taxol (20 mg/kg/dose, i.p.), and the treatment was repeated every 2 weeks (on day 21 and day 35) for a total of three cycles. Two other groups of mice were treated with either HYB 165 (AS RIα) or a control MBO with a scrambled sequence (10 mg/kg/dose, p.o.), daily for five days (days 8–12). Treatment was repeated every 2 weeks (days 22–26 and days 36–40) for a total of three cycles. Two more groups of mice were treated with taxol and either HYB 165 or the control MBO, administering the taxol (20 mg/kg/dose, i.p.) on day 7, followed by oral administration of either HYB 165 or the control MBO daily for five days (days 8–12). The sequential treatment was repeated with the same schedule every 2 weeks for a total of three cycles.

AR = test: Histochemical analysis of GEO tumors: AR; type: in vivo; details: single agent, after two cycles
Description: as §3, §4

[5] = system: LS-174T human colon carcinoma cells; test: LS-174T tumor growth and antisense treatment; type: in vivo, athymic mice; details: single s.c. dose 1 mg per mouse, FIG. 1
Description: LS-174T human colon carcinoma cells (1×10^6 cells) were inoculated subcutaneously (s.c.) into the left flank of athymic mice. A single dose of RIα antisense hybrid (Oligo 165, SEQ ID NO:4), inverted hybrid (Oligo 166, SEQ ID NO:6), or antisense (Oligo 164, SEQ ID NO:1) oligonucleotides or control oligonucleotide (Oligo 169, SEQ ID NO:7); Oligo 168 (SEQ ID NO:5); Oligo 188, (SEQ ID NO:3) as shown in Table 1 (1 mg per 0.1 ml saline per mouse), or saline (0.1 ml per mouse), was injected s.c. into the right flank of mice when tumor size reached 80 to 100 mg, about 1 week after cell inoculation. Tumor volumes were obtained from daily measurement of the longest and shortest diameters and calculation by the formula, 4/3πr^3 where r=(length+width)/4. At each indicated time, two animals from the control and antisense-treated groups were killed, and tumors were removed and weighed.

CC(=O)O[C@@]12CO[C@@H]1C[C@H](O)[C@@]1(C)C(=O)[C@H](O)C3=C(C)[C@@H](OC(=O)[C@H](O)[C@@H](NC(=O)OC(C)(C)C)c4ccccc4)C[C@@](O)([C@@H](OC(=O)c4ccccc4)[C@H]21)C3(C)C [docetaxel, reference compound]
inhibition at 10 pM ([1]; Homo sapiens, ZR-75-1, docetaxel 0.01 nM alone (Examples 13, 14)): < 12% | inhibition at 10 pM ([1]; Homo sapiens, ZR-75-1, docetaxel 0.01 nM alone (Examples 21, 22)): < 15% | inhibition at 30 pM ([1]; Homo sapiens, ZR-75-1, docetaxel 0.03 nM alone (Examples 21, 22)): ~40% | inhibition at 0.0001 µM ([1]; Homo sapiens, ZR-75-1, docetaxel 0.1 nM alone (Examples 21, 22)): ~72% | inhibition at 0.0003 µM ([1]; Homo sapiens, ZR-75-1, docetaxel 0.3 nM alone (Examples 21, 22)): ~85% | growth inhibition ([1]; docetaxel alone, doses ranging between 0.01 and 0.3 nM, maximum): up to 80%

CC(=O)O[C@H]1C(=O)[C@@]2(C)[C@H]([C@H](OC(=O)c3ccccc3)[C@]3(O)C[C@H](OC(=O)[C@H](O)[C@@H](NC(=O)c4ccccc4)c4ccccc4)C(C)=C1C3(C)C)[C@]1(OC(C)=O)CO[C@@H]1C[C@@H]2O [paclitaxel, reference compound]
inhibition of staining (microvessel count) [2]: over 60% | expression of TGFα (TGFα): Unlike taxol, treatment with HYB 165 inhibited the expression of TGF α and AR | p27 expression (p27): Unlike taxol, HYB 165 alone is able to increase p27 expression | inhibition at 0.001 µM ([3]; Homo sapiens, paclitaxel 1 nM alone): < 5% | inhibition at 0.005 µM ([3]; Homo sapiens, paclitaxel 5 nM alone): ~20% | inhibition at 0.01 µM ([3]; Homo sapiens, paclitaxel 10 nM alone): ~58% | growth inhibition ([3]; paclitaxel alone, doses ranging between 0.1 and 10 nM, maximum): up to 60% | tumor growth ([4]; three cycles (taxol 20 mg/kg/dose i.p.; MBO 10 mg/kg/dose p.o.), FIG. 17A): inhibited tumor growth | survival time ([4]; three cycles, FIG. 17B): slight increase in survival time | expression of AR (AR): Unlike taxol, treatment with HYB 165 inhibited the expression of TGF α and AR

Oligo 166: Inverted hybrid antisense 18-mer GCG TGC CUC CUC ACT GGC, SEQ ID NO:6 (antisense GCGTGCCUCCUCACTGGC; inverted hybrid: 2'-O-methyl ribonucleotide middle segment, DNA flanks, exact positions not given here)
size of the tumor [5]: smaller from three days after injection onward than the phosphorothioate oligonucleotide 164

Oligo 168: Mismatched hybrid control GCG CGC CTC CTC GCU GGC, SEQ ID NO:5 (GCGCGCCTCCTCGCUGGC; hybrid: 2'-O-methyl ribonucleotide ends, DNA middle, exact positions not given here) [reference compound]
size of the tumor [5]: little ability to keep tumor size at a minimum relative to the hybrid and inverted hybrid oligonucleotides
